Marks after values point to notes of the source that are not given here.
Test system: E. coli enhanced green fluorescent protein (B)GFP 0157:H7
Test: Biocidal wood blocks: CFU recovered after contact
Type: cell-based
Settings: for average percent reduction of bacterium as compared to the untreated control blocks: estimated from the data of all trials
Experimental: The blocks were prepared by dividing large cutting boards into squares with sides measuring 5 cm using a table saw. The blocks were of the face-grain configuration. The edges were then smoothened with 120 or 180 grit sandpaper as needed to achieve uniformity among all blocks. The blocks were visually inspected to be the correct size and any blocks that appeared to deviate from the standard were remeasured and discarded if they were an incorrect size.
The blocks (Bemis Manufacturing Company, 300 Mill Street, PO Box 901, Sheboygan Falls, Wis., 53085-0901) were labeled based on concentration and ascending numbers. The blocks were immersed in solutions containing the following two formulations, respectively: […]
And the blocks were taken out from the solutions after they are completely soaked by the chemicals, and then dried at 80° C. in an oven for a prolonged time till they are completely dry. The curing of the blocks was conducted at 150° C. for over 30 minutes.
A bleach process is necessary to activate the biocide. A bleach solution containing about 0.05% sodium hypochlorite was prepared from a commercial Clorox liquid (containing 5.25% sodium hypochlorite). The volume of the solution was based on a liquid to wood mass ratio of 50:1. The blocks were scrubbed lightly on a sponge saturated with the chlorine solution from the bath for five strokes. The blocks were placed face down in the diluted bleach solution for 15 minutes. After 15 minutes the blocks were transferred directly to a cooling rack (to allow even drying) in a laminar flow hood that had been previously sterilized with a 70% ethanol solution and left with the exhaust turned on. The blocks were then left in the laminar flow hood until completely dry (at least five hours).
1. A sample of E. coli enhanced green fluorescent protein (B)GFP 0157:H7 was inoculated into a test tube of LB broth with 0.01% ampicillin and 0.01% novobiocin antibiotics (to be referred to as LBAN). The test tube was labeled and then incubated at 37° C. for 24 hours. The sample was then serial diluted with LBAN broth. 0.1 mL of the broth was then inoculated onto LB or Brain Heart Infusion (BHI) agar, also with ampicillin and 0.01% novobiocin antibiotics. The concentrations of 10^−7, 10^−6, and 10^−5 were spread plated. These plates were allowed to incubate for 24 hours at 37° C. The CFU/mL was determined by averaging the colonies from the plates of the most easily countable concentration.
7. The timer was started and the inoculum was spread on the blocks at the rate of one per 30 seconds.
8. 0.2 mL of the inoculum was spread onto the blocks using the pipet tip and pipetter. A new pipet tip was used for each block.
9. After the correct (variable) contact time, the blocks were carefully pressed on the agar surface for 20 seconds and then the plates were inverted and placed in an incubator at 37° C. for 24 hours.
10. The colonies were counted for each plate and thus the kills were determined for each concentration.

[1] = trial A, 5% biocide, inoculum 2.5 × 10^5, contact time 5 minutes
[2] = trial A, 10% biocide, inoculum 2.5 × 10^5, contact time 5 minutes
[3] = trial B, 5% biocide, inoculum 1.8 × 10^5, contact time 5 minutes
[4] = trial B, 10% biocide, inoculum 1.8 × 10^5, contact time 5 minutes
[5] = trial C, 5% biocide, inoculum 1.4 × 10^5, contact time 5 minutes
[6] = trial C, 10% biocide, inoculum 1.4 × 10^5, contact time 5 minutes
[7] = trial D, 5% biocide, inoculum 1.4 × 10^5, contact time 5 minutes
[8] = trial D, 10% biocide, inoculum 1.4 × 10^5, contact time 5 minutes
[9] = trial E, 5% biocide, inoculum 1.0 × 10^4, contact time 5 minutes
[10] = trial E, 10% biocide, inoculum 1.0 × 10^4, contact time 5 minutes
[11] = trial F, 5% biocide, inoculum 1.0 × 10^4, contact time 5 minutes
[12] = trial F, 10% biocide, inoculum 1.0 × 10^4, contact time 5 minutes
[13] = trial G, 5% biocide, inoculum 3.3 × 10^4, contact time 2.5 minutes
[14] = trial G, 10% biocide, inoculum 3.3 × 10^4, contact time 2.5 minutes
[15] = trial H, 5% biocide, inoculum 3.3 × 10^4, contact time 5 minutes
[16] = trial H, 10% biocide, inoculum 3.3 × 10^4, contact time 5 minutes
[17] = trial I, 5% biocide, inoculum 1.0 × 10^4, contact time 5 minutes
[18] = trial I, 10% biocide, inoculum 1.0 × 10^4, contact time 5 minutes
[19] = trial J, 1st line, 5% biocide, inoculum 1.37 × 10^5, contact time 5 minutes
[20] = trial J, 1st line, 10% biocide, inoculum 1.37 × 10^5, contact time 5 minutes
[21] = trial J, 2nd line, 5% biocide, inoculum 1.37 × 10^5, contact time 5 minutes
[22] = trial J, 2nd line, 10% biocide, inoculum 1.37 × 10^5, contact time 5 minutes
[23] = trial K, New Blocks, 5% biocide, inoculum 1.2 × 10^4, contact time 5 minutes
[24] = trial K, New Blocks, 10% biocide, inoculum 1.2 × 10^4, contact time 5 minutes
[25] = trial K, Old Blocks, 5% biocide, inoculum 1.2 × 10^4, contact time 5 minutes
[26] = trial K, Old Blocks, 10% biocide, inoculum 1.2 × 10^4, contact time 5 minutes
[27] = trial L, New Blocks, 5% biocide, inoculum 8.0 × 10^1, contact time 5 minutes
[28] = trial L, New Blocks, 10% biocide, inoculum 8.0 × 10^1, contact time 5 minutes
[29] = trial L, Old Blocks, 5% biocide, inoculum 8.0 × 10^1, contact time 5 minutes
[30] = trial L, Old Blocks, 10% biocide, inoculum 8.0 × 10^1, contact time 5 minutes
[31] = trial M, New Blocks, 5% biocide, inoculum 6.45 × 10^3, contact time 10 minutes
[32] = trial M, New Blocks, 10% biocide, inoculum 6.45 × 10^3, contact time 10 minutes
[33] = trial M, Old Blocks, 5% biocide, inoculum 6.45 × 10^3, contact time 10 minutes
[34] = trial M, Old Blocks, 10% biocide, inoculum 6.45 × 10^3, contact time 10 minutes
[35] = trial N, New Blocks, 5% biocide, inoculum 6.6 × 10^4 CFU/mL, contact time 10 minutes
[36] = trial N, New Blocks, 10% biocide, inoculum 6.6 × 10^4 CFU/mL, contact time 10 minutes
[37] = trial N, Old Blocks, 5% biocide, inoculum 6.6 × 10^4 CFU/mL, contact time 10 minutes
[38] = trial N, Old Blocks, 10% biocide, inoculum 6.6 × 10^4 CFU/mL, contact time 10 minutes

CC1(C)C(=O)N(CO)C(=O)N1CO [Anti-2, 1,3-dimethylol-5,5-dimethylhydantoin]
average percent reduction of bacterium as compared to the untreated control blocks (5% blocks): about 86%
average percent reduction of bacterium as compared to the untreated control blocks (10% concentration blocks): 91%
means CFU/block ± standard deviation [1]: 125.3 ± 74.1 CFU/block
percentage reduction compared to control [1]: (85.0%)**
means CFU/block ± standard deviation [2]: 166.3 ± 132.2 CFU/block
percentage reduction compared to control [2]: (81.2%)**
means CFU/block ± standard deviation [3]: 11.6 ± 11.4 CFU/block
percentage reduction compared to control [3]: (97.6%)
means CFU/block ± standard deviation [4]: 26.3 ± 27.6 CFU/block
percentage reduction compared to control [4]: (94.5%)
means CFU/block ± standard deviation [5]: 65 ± 23.5 CFU/block
percentage reduction compared to control [5]: (85.4%)
means CFU/block ± standard deviation [6]: 48 ± 44.2 CFU/block
percentage reduction compared to control [6]: (89.2%)
means CFU/block ± standard deviation [7]: 19.8 ± 6.8 CFU/block
percentage reduction compared to control [7]: (95.0%)
means CFU/block ± standard deviation [8]: 26.8 ± 20.1 CFU/block
percentage reduction compared to control [8]: (93.2%)
means CFU/block ± standard deviation [9]: 2.5 ± 2.9 CFU/block
percentage reduction compared to control [9]: (97.7%)
means CFU/block ± standard deviation [10]: 2.3 ± 3.4 CFU/block
percentage reduction compared to control [10]: (97.8%)
means CFU/block ± standard deviation [11]: 25.9 ± 13.8 CFU/block
percentage reduction compared to control [11]: (94.3%)
means CFU/block ± standard deviation [12]: 31.7 ± 25.1 CFU/block
percentage reduction compared to control [12]: (93.1%)
means CFU/block ± standard deviation [13]: 20.8 ± 13.8 CFU/block
percentage reduction compared to control [13]: (89.8%)
means CFU/block ± standard deviation [14]: 10.3 ± 7.8 CFU/block
percentage reduction compared to control [14]: (95.0%)
means CFU/block ± standard deviation [15]: 14 ± 11.4 CFU/block
percentage reduction compared to control [15]: (80.1%)
means CFU/block ± standard deviation [16]: 7.4 ± 4.0 CFU/block
percentage reduction compared to control [16]: (89.9%)
means CFU/block ± standard deviation [17]: 12.3 ± 8.4 CFU/block
percentage reduction compared to control [17]: (73.8%)
means CFU/block ± standard deviation [18]: 6 ± 4.2 CFU/block
percentage reduction compared to control [18]: (87.2%)
means CFU/block ± standard deviation [19]: 63.7 ± 45.1 CFU/block
percentage reduction compared to control [19]: (80.6%)
means CFU/block ± standard deviation [20]: 37.9 ± 14.3 CFU/block
percentage reduction compared to control [20]: (88.5%)
means CFU/block ± standard deviation [21]: 45.8 ± 19.2 CFU/block
percentage reduction compared to control [21]: (85.8%)
means CFU/block ± standard deviation [22]: 14.6 ± 12.5 CFU/block
percentage reduction compared to control [22]: (95.5%)
means CFU/block ± standard deviation (trial J, 3rd line, 5% biocide, inoculum 1.37 × 10^5, contact time 5 minutes): 37.4 ± 15.8 CFU/block
means CFU/block ± standard deviation (trial J, 3rd line, 10% biocide, inoculum 1.37 × 10^5, contact time 5 minutes): 29.7 ± 25.1 CFU/block
means CFU/block ± standard deviation [23]: 7.7 ± 3.0 CFU/block
percentage reduction compared to control [23]: (90.7%)
means CFU/block ± standard deviation [24]: 4.9 ± 5.8 CFU/block
percentage reduction compared to control [24]: (94.1%)
means CFU/block ± standard deviation [25]: 12.0 ± 9.4 CFU/block
percentage reduction compared to control [25]: (77.3%)
means CFU/block ± standard deviation [26]: 9.3 ± 5.4 CFU/block
percentage reduction compared to control [26]: (82.4%)
means CFU/block ± standard deviation [27]: 0.17 ± 0.41 CFU/block
percentage reduction compared to control [27]: (98.1%)
means CFU/block ± standard deviation [28]: 0 ± 0 CFU/block
percentage reduction compared to control [28]: (100%
means CFU/block ± standard deviation [29]: 1.3 ± 1.3 CFU/block
percentage reduction compared to control [29]: (88.9%)
means CFU/block ± standard deviation [30]: 0.67 ± 0.71 CFU/block
percentage reduction compared to control [30]: (94.3%)
means CFU/block ± standard deviation [31]: 3.3 ± 2.4 CFU/block
percentage reduction compared to control [31]: (60.2%
means CFU/block ± standard deviation [32]: 1.6 ± 1.8 CFU/block
percentage reduction compared to control [32]: (80.7%)
means CFU/block ± standard deviation [33]: 3.3 ± 2.1 CFU/block
percentage reduction compared to control [33]: (82.4%)
means CFU/block ± standard deviation [34]: 3.3 ± 2.4 CFU/block
percentage reduction compared to control [34]: (82.4%)
means CFU/block ± standard deviation [35]: 17.8 ± 4.8 CFU/block
percentage reduction compared to control [35]: (88.2%)
means CFU/block ± standard deviation [36]: 6.2 ± 5.8 CFU/block
percentage reduction compared to control [36]: (95.9%)
means CFU/block ± standard deviation [37]: 20.7 ± 6.1 CFU/block
percentage reduction compared to control [37]: (86.5%)
means CFU/block ± standard deviation [38]: 15.9 ± 6.7 CFU/block
percentage reduction compared to control [38]: (89.6%)
more effective reductions of the bacterium on newer blocks than on old blocks (trials J-N, new versus old blocks): 5-10%

Source: US6770287B1, “Biocidal cellulosic material” (The Regents of the University of California, priority 2000, dated 2004)
